{"source": "patent US20160280736A1", "about": "“CYCLIC PEPTIDE COMPOUND, AND PREPARATION METHOD, PHARMACEUTICAL COMPOSITION AND USE THEREOF” (HANGZHOU GUANYU BIO-MEDICAL CO., LTD., priority 2013, published 2016)", "key": {"[1]": {"tested_on": "Huh-7 (human hepatoma cells)", "test": "MTT cancer cell growth inhibition", "assay_type": "cell-based", "conditions": "Huh-7, 72 h, Huh-7 cells, 72 hours incubation", "description": "(§1) MTT assay principle is yellow MTT can penetrate membrane into the cell, succinic dehydrogenase of the mitochondria in living cells can make exogenous MTT reduction of insoluble in water of blue-violet acicular formazan for crystallization and deposition in the cell, crystallization can be dissolved dimethyl sulfoxide (DMSO) solution, detected its absorbance at 490 nm/570 nm wavelength by enzyme-linked immunosorbent assay, which can reflect the number of cells.\n(§2) Using DMEM+10% FBS culture medium or using 1640+10% FBS culture, respectively.\n(§3) Experimental group: 190 μl cell suspension+10 μl different concentrations of drugs (the final concentration is 10^−5˜10^−10 M)\n(§4) a) Cells were seeded in 96-well plates with the inoculation of 1500/well, 190 μl/hole, 37° C., 5% of CO2 incubator overnight;\n(§5) b) The next day each well was added 10 μl of different drugs. The final concentration of drug was 10^−5˜10^−10 M, three parallel holes; 37° C., 5% CO2 culture incubator for 72 hours incubation;\n(§6) c) Per well was added 20 μl 5 mg/ml of MTT, 37° C., 5% CO2 culture incubator for 4 hours incubation;\n(§7) d) The supernatant was discarded. Each well was added 100 μl of DMSO and oscillation;\n(§8) e) 570 nm readings. Calculate cell viability. GI50 calculation based on the results."}, "[2]": {"tested_on": "K562 (human leukemia cells)", "test": "MTT cancer cell growth inhibition", "assay_type": "cell-based", "conditions": "K562, 72 h, 72 hours incubation", "description": "as §1, §2, §3, §4, §5, §6, §7, §8"}, "[3]": {"tested_on": "KBM-5 (human chronic myelogenous leukemia)", "test": "MTT cancer cell growth inhibition", "assay_type": "cell-based", "conditions": "KBM5, 72 h, KBM-5 cells, 72 hours incubation", "description": "as §1, §2, §3, §4, §5, §6, §7, §8"}, "[4]": {"tested_on": "KBM5-T315I (human chronic myelogenous leukemia)", "test": "MTT cancer cell growth inhibition", "assay_type": "cell-based", "conditions": "72 h, KBM5-T315I cells, 72 hours incubation, read-out: GI50 KBM5-T", "description": "as §1, §2, §3, §4, §5, §6, §7, §8"}, "[5]": {"tested_on": "MDA-MB-231 (breast cancer cells)", "test": "MTT cancer cell growth inhibition", "assay_type": "cell-based", "conditions": "Homo sapiens, MDA-MB-231, 72 h, MDA-MB-231 cells, 72 hours incubation", "description": "as §1, §2, §3, §4, §5, §6, §7, §8"}, "[6]": {"tested_on": "N-87 (human gastric cancer cells)", "test": "MTT cancer cell growth inhibition", "assay_type": "cell-based", "conditions": "72 h, N-87 cells, 72 hours incubation", "description": "as §1, §2, §3, §4, §5, §6, §7, §8"}, "[7]": {"tested_on": "SGC-7901 (human gastric cancer cells)", "test": "MTT cancer cell growth inhibition", "assay_type": "cell-based", "conditions": "SGC-7901, 72 h, SGC-7901 cells, 72 hours incubation, read-out: GI50 SGC-79", "description": "as §1, §2, §3, §4, §5, §6, §7, §8"}, "[8]": {"tested_on": "Bel-7402 (human hepatoma cells)", "test": "MTT cancer cell growth inhibition", "assay_type": "cell-based", "conditions": "Bel-7402, 72 h, Bel-7402 cells, 72 hours incubation, read-out: GI50 Bel-7", "description": "as §1, §2, §3, §4, §5, §6, §7, §8"}, "[9]": {"tested_on": "HCC827 (human non-small cell lung cancer cells)", "test": "MTT cancer cell growth inhibition", "assay_type": "cell-based", "conditions": "HCC827, 72 h, 72 hours incubation, read-out: GI50 HCC8", "description": "as §1, §2, §3, §4, §5, §6, §7, §8"}, "HDAC1": {"target": "HDAC1 (Homo sapiens, UniProt Q13547)", "sequence (Q13547 whole entry, species assumed)": "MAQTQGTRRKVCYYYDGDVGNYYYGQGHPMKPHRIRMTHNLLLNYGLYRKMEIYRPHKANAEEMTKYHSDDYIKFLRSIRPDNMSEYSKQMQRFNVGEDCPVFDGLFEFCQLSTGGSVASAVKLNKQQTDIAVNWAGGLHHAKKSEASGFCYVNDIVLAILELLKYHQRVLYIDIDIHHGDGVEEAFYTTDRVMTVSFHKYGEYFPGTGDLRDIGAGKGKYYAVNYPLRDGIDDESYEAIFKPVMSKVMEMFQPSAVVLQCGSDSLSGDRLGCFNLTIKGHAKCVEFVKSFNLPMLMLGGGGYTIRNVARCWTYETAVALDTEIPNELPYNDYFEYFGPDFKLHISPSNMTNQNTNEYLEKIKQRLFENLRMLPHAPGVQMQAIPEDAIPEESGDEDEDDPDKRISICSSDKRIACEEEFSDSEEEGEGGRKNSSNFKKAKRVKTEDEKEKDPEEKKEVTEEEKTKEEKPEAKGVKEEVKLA", "test": "HDAC biochemical activity measurement (fluorescent substrate deacetylation)", "conditions": "HDAC1 enzyme, 37°, 30 minutes", "experimental": "(§9) Measurement principle: The chemical activity of the compound is determined according to the degree of deacetylation inhibition of the HDAC enzyme. This experiment measured the degree of deacetylation related to tumor proliferation and metastasis of HDAC1, HDAC2, HDAC3, HDAC8, HDAC11 five subtypes HDAC enzymes. After the substrate containing an acetylated lysine side chain and HDAC enzyme are labeled with a fluorescent label, the fluorescent substrate is de acetyl. The fluorescent labeled substrate is cleaved by the enzyme, and the fluorescent substance is released, which generates 460 nm emission light under the excitation of 360 nm light.\n(§10) Specific steps: HDAC substrate was diluted with reaction buffer to 200M (reaction concentration of 20M), the HDAC enzyme was diluted to the appropriate concentration, then added different concentrations of the test compounds and acted at 37 ? 30 minutes, and then added the same volume of 2-times concentration substrate developing solution (developer), incubated at room temperature for 15 minutes. Finally, the last reading measured with a microplate plate reader, excitation light was 360 nm, the emitted light was 460 nm, data processing software was Prime 4, and the results are shown in Table 1."}, "HDAC2": {"target": "HDAC2 (Homo sapiens, UniProt Q92769)", "sequence (Q92769 whole entry, species assumed)": "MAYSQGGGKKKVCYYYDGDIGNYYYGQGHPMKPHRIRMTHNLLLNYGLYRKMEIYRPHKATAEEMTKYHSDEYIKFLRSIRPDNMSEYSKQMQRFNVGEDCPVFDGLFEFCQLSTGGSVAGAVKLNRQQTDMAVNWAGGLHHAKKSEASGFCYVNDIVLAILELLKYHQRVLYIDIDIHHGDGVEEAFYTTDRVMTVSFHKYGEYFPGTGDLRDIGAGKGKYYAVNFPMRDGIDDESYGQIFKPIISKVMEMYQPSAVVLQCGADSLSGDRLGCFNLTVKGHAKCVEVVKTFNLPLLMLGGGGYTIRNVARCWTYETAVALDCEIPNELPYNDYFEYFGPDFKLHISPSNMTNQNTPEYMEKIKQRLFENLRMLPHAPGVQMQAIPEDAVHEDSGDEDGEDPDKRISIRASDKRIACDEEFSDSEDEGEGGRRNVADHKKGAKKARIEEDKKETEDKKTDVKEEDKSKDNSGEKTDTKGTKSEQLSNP", "test": "HDAC biochemical activity measurement (fluorescent substrate deacetylation)", "conditions": "HDAC2 enzyme, 37°, 30 minutes", "experimental": "as §9, §10"}, "HDAC8": {"target": "T1, HDAC8 (Homo sapiens, UniProt Q9BY41)", "T1 sequence (Q9BY41 1-377)": "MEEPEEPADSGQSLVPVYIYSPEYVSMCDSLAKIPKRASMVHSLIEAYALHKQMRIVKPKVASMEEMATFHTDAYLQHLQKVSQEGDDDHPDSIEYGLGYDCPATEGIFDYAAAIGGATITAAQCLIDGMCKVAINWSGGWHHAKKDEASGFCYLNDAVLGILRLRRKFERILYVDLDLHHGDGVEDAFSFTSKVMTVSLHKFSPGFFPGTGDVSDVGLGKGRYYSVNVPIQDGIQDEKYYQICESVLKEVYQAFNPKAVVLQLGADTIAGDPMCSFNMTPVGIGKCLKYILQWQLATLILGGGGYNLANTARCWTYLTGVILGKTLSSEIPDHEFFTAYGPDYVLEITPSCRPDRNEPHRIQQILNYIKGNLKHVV", "test": "HDAC biochemical activity measurement (fluorescent substrate deacetylation)", "conditions": "HDAC8 enzyme, 37°, 30 minutes", "experimental": "as §9, §10"}, "[10]": {"tested_on": "A549 (human lung cancer cells)", "test": "MTT cancer cell growth inhibition", "assay_type": "cell-based", "conditions": "Homo sapiens, A549, 72 h, 72 hours incubation, A549 cells, read-out: GI50 A549", "description": "as §1, §2, §3, §4, §5, §6, §7, §8"}, "[11]": {"tested_on": "BGC-823 (human gastric cancer cells)", "test": "MTT cancer cell growth inhibition", "assay_type": "cell-based", "conditions": "Homo sapiens, BGC-823, 72 h, 72 hours incubation, BGC-823 cells, read-out: GI50 BGC8", "description": "as §1, §2, §3, §4, §5, §6, §7, §8"}, "[12]": {"tested_on": "DU145 (human prostate cancer cells)", "test": "MTT cancer cell growth inhibition", "assay_type": "cell-based", "conditions": "Homo sapiens, DU-145, 72 h, 72 hours incubation, DU145 cells, read-out: GI50 Du14", "description": "as §1, §2, §3, §4, §5, §6, §7, §8"}, "[13]": {"tested_on": "HT1080 (human fibrosarcoma cells)", "test": "MTT cancer cell growth inhibition", "assay_type": "cell-based", "conditions": "Homo sapiens, HT-1080, 72 h, 72 hours incubation, HT1080 cells, read-out: GI50 HT10", "description": "as §1, §2, §3, §4, §5, §6, §7, §8"}, "[14]": {"tested_on": "Hela (human cervical cancer cells)", "test": "MTT cancer cell growth inhibition", "assay_type": "cell-based", "conditions": "Homo sapiens, HeLa, 72 h, 72 hours incubation, Hela cells, read-out: GI50 Hela", "description": "as §1, §2, §3, §4, §5, §6, §7, §8"}, "[15]": {"tested_on": "MCF-7 (human breast cancer cells)", "test": "MTT cancer cell growth inhibition", "assay_type": "cell-based", "conditions": "Homo sapiens, MCF7, 72 h, 72 hours incubation, MCF-7 cells", "description": "as §1, §2, §3, §4, §5, §6, §7, §8"}, "[16]": {"tested_on": "MOLT-4 (human acute lymphoblastic leukemia cells)", "test": "MTT cancer cell growth inhibition", "assay_type": "cell-based", "conditions": "Homo sapiens, MOLT-4, 72 h, 72 hours incubation, MOLT-4 cells, read-out: GI50 Molt-", "description": "as §1, §2, §3, §4, §5, §6, §7, §8"}, "[17]": {"tested_on": "PANC-1 (Pac-1, human pancreatic cancer cells)", "test": "MTT cancer cell growth inhibition", "assay_type": "cell-based", "conditions": "Homo sapiens, PANC-1, 72 h, 72 hours incubation, PANC-1 cells, read-out: GI50 PAN", "description": "as §1, §2, §3, §4, §5, §6, §7, §8"}, "[18]": {"tested_on": "U937 (human leukemia cells)", "test": "MTT cancer cell growth inhibition", "assay_type": "cell-based", "conditions": "Homo sapiens, U-937, 72 h, 72 hours incubation", "description": "as §1, §2, §3, §4, §5, §6, §7, §8"}, "[19]": {"tested_on": "lncap (prostate cancer cells)", "test": "MTT cancer cell growth inhibition", "assay_type": "cell-based", "conditions": "Homo sapiens, LNCaP, 72 h, 72 hours incubation, lncap cells, read-out: GI50 lncap", "description": "as §1, §2, §3, §4, §5, §6, §7, §8"}, "HDAC3": {"target": "HDAC3 (Homo sapiens, UniProt O15379)", "sequence (O15379 whole entry, species assumed)": "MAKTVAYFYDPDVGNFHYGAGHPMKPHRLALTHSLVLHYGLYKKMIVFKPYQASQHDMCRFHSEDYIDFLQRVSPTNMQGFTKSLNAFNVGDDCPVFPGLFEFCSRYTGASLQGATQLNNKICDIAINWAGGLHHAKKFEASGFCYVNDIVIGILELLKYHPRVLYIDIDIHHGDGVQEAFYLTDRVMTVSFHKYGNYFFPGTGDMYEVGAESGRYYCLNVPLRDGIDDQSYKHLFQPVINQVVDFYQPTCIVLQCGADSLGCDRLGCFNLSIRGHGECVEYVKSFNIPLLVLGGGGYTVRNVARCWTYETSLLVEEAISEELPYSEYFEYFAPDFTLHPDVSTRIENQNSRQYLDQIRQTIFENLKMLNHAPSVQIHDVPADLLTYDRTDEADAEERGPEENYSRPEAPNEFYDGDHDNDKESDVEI", "sequence (Q9Y618 395-489 partner limits assumed, species assumed)": "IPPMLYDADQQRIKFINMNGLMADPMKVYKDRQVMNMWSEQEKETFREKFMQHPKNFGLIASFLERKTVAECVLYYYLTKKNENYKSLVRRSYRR", "test": "HDAC biochemical activity measurement (fluorescent substrate deacetylation)", "conditions": "IC50 (μM) HDAC3, HDAC3 enzyme, 37°, 30 minutes", "experimental": "as §9, §10"}, "HDAC11": {"target": "T2, HDAC11 (Homo sapiens, UniProt Q96DB2)", "T2 sequence (Q96DB2 1-347)": "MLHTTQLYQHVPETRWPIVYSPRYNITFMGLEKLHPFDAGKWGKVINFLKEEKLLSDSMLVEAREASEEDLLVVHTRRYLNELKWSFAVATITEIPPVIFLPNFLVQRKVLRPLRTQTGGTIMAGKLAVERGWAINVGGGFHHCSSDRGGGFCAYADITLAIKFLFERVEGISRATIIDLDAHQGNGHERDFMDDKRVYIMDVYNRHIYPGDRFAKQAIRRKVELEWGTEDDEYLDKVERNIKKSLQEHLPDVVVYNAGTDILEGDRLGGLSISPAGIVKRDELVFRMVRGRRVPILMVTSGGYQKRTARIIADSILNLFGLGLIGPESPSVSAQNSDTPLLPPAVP", "test": "HDAC biochemical activity measurement (fluorescent substrate deacetylation)", "conditions": "IC50 (μM) HDAC11, HDAC11 enzyme, 37°, 30 minutes", "experimental": "as §9, §10"}}}
{"molecule": "C/C=C1\\NC(=O)c2ccc(F)c(n2)CNC(=O)C[C@@H](/C=C/CCSC(C)=O)OC(=O)[C@H](C(C)C)NC1=O", "note": "(single isomer, unassigned) [Example 50]", "values": [{"measurement": "GI50", "setting": "[1]", "result": 25, "unit": "nM"}, {"measurement": "GI50", "setting": "[2]", "result": 42, "unit": "nM"}, {"measurement": "GI50", "setting": "[3]", "result": 79, "unit": "nM"}, {"measurement": "GI50", "setting": "[4]", "result": 63, "unit": "nM"}, {"measurement": "GI50", "setting": "[5]", "result": 25, "unit": "nM"}, {"measurement": "GI50", "setting": "[6]", "result": 69, "unit": "nM"}, {"measurement": "GI50", "setting": "[7]", "result": 39, "unit": "nM"}]}
{"molecule": "C/C=C1\\NC(=O)c2cc(F)cc(n2)CNC(=O)C[C@@H](/C=C/CCSC(C)=O)OC(=O)[C@H](C(C)C)NC1=O", "note": "[Compound 49]", "values": [{"measurement": "GI50", "setting": "[8]", "result": 72, "unit": "nM"}, {"measurement": "GI50", "setting": "[9]", "result": 72, "unit": "nM"}, {"measurement": "GI50", "setting": "[1]", "result": 26, "unit": "nM"}, {"measurement": "GI50", "setting": "[2]", "result": 17, "unit": "nM"}, {"measurement": "GI50", "setting": "[3]", "result": 87, "unit": "nM"}, {"measurement": "GI50", "setting": "[4]", "result": 55, "unit": "nM"}, {"measurement": "GI50", "setting": "[5]", "result": 26, "unit": "nM"}, {"measurement": "GI50", "setting": "[6]", "result": 73, "unit": "nM"}, {"measurement": "GI50", "setting": "[7]", "result": 67, "unit": "nM"}]}
{"molecule": "C/C=C1\\NC(=O)c2cc(SC)cc(n2)CNC(=O)C[C@@H](/C=C/CCSC(=O)CCCC)OC(=O)[C@H](C(C)C)NC1=O", "note": "[Compound 157]", "values": [{"measurement": "IC50", "setting": "HDAC1", "result": 0.082, "unit": "µM"}, {"measurement": "IC50", "setting": "HDAC2", "result": 0.019, "unit": "µM"}, {"measurement": "IC50", "setting": "HDAC8", "result": 0.027, "unit": "µM"}, {"measurement": "GI50", "setting": "[10]", "result": 25, "unit": "nM"}, {"measurement": "GI50", "setting": "[11]", "result": 37, "unit": "nM"}, {"measurement": "GI50", "setting": "[12]", "result": 73, "unit": "nM"}, {"measurement": "GI50", "setting": "[13]", "result": 95, "unit": "nM"}, {"measurement": "GI50", "setting": "[14]", "result": 76, "unit": "nM"}, {"measurement": "GI50", "setting": "[15]", "result": 23, "unit": "nM"}, {"measurement": "GI50", "setting": "[16]", "result": 25, "unit": "nM"}, {"measurement": "GI50", "setting": "[17]", "result": 26, "unit": "nM"}, {"measurement": "GI50", "setting": "[18]", "result": 24, "unit": "nM"}, {"measurement": "GI50", "setting": "[19]", "result": 51, "unit": "nM"}, {"measurement": "IC50", "setting": "HDAC3", "result": 0.051, "unit": "µM"}, {"measurement": "IC50", "setting": "HDAC11", "result": 0.091, "unit": "µM"}]}
